Key:
Male Sprague-Dawley rats [1] = assay: Situational anxiety behavioral model in rats (latency to exit dark cylinder into open field); format: in vivo, rat; conditions: for lowest effective dose (decrease of exit latency): PO, 60 minutes before testing
Description: Situational Anxiety Behavioral Studies in Rats. (S)-4-(1-Cyclopropyl-2-methoxyethyl)-6-(6-(difluoromethoxy)-2,5-dimethylpyridin-3-ylamino)-5-oxo-4,5-dihydropyrazine-2-carbonitrile has been evaluated in a situational anxiety model to evaluate its anxiolytic potential. In this model, rats are placed in a small, darkened chamber located in an unfamiliar open field. Vehicle-treated rats spend most of the time within the chamber, consistent with a heightened state of anxiety [Takahashi L. K. et al, Behav. Neurosci. 103: 648-654, (1989)]. This model is sensitive to anxiolytics, including benzodiazepines such as chlordiazepoxide [Yang X-M. et al, J. Pharmacol. Exp. Ther. 255: 1064-1070, (1990)]. In addition, previous CRF1 antagonists, such as DMP696 and DMP904 [McElroy J. F. et al., Psychopharmacology 165: 86-92, (2002); Lelas S. et al., J. Pharmacol. Exp. Ther. 309: 293-302, (2004)] were effective this model. The effects of (S)-4-(1-cyclopropyl-2-methoxyethyl)-6-(6-(difluoromethoxy)-2,5-dimethylpyridin-3-ylamino)-5-oxo-4,5-dihydropyrazine-2-carbonitrile were compared with those of anxiolytic standards chlordiazepoxide (Librium®) and diazepam (Valium®) in this model. Male Sprague-Dawley rats weighing 180-300 g were purchased from Charles River Laboratories (Wilmington, Mass.). The rats were housed individually in suspended wire cages in colony rooms maintained at a constant temperature (21±2° C.) and humidity (50±10%). The rooms were illuminated 12 hours per day. The rats had ad libitum access to food and water throughout the studies. Behavioral studies were conducted between 0600 and 1300 h. Animals were maintained in accordance with the guidelines of the Animal Care and Use Committee of the Bristol-Myers Squibb Company, the “Guide for Care and Use of Laboratory Animals” (Institute of Animal Laboratory Resources, 1996), and the guidelines published in the National Institutes of Health Guide for the Care and Use of Laboratory Animals. Research protocols were approved by the Bristol-Myers Squibb Company Animal Care and Use Committee. All compounds were prepared in 0.25% methylcellulose and administered PO. Chlordiazepoxide, diazepam, and desipramine were purchased from Sigma Chemical Company. (S)-4-(1-Cyclopropyl-2-methoxyethyl)-6-(6-(difluoromethoxy)-2,5-dimethylpyridin-3-ylamino)-5-oxo-4,5-dihydropyrazine-2-carbonitrile was dosed in the volume of 2 ml/kg. All standards were dosed in the volume of 2 ml/kg. For all tests, data were analyzed by analysis of variance, followed by Dunnett's t-tests for individual comparisons. The significance value was set at 0.05. The data are presented in the text and figures as mean±standard error of the mean (SEM). Male Sprague-Dawley rats were habituated to handling and dosing the day before testing. On the day of testing, all compounds were administered PO by gavage 60 minutes before behavioral testing. To initiate testing, each animal was placed in a small galvanized steel cylinder (14 cm length, 10 cm diameter), which was placed lengthwise against one wall of an illuminated open field (106 cm length×92 cm width×50 cm height). The open field was illuminated by a 60-W incandescent bulb and illumination was titrated by a powerstat transformer to a 30-lux reading at the entrance to the cylinder. Behavior was assessed for 15 minutes by a trained observer unaware of treatment assignment. The latency of the animal to exit the cylinder, defined by the placement of all four paws into the open field, and explore the open field was recorded (in seconds). […] The Plexiglas chamber and the cylinder were cleaned with 1.0% glacial acetic acid between animals to prevent olfactory cues from influencing the behavior of subsequently tested animals. Following behavioral testing, animals were sacrificed and plasma samples and brains were taken for analysis of plasma exposure and central receptor occupancy.

Male Sprague-Dawley rats [2] = conditions: previous CRF1 antagonists, literature (McElroy 2002; Lelas 2004); cited from earlier work
[3] = 3.0 mg/kg PO, benzodiazepine standard studies
[4] = 10 mg/kg PO, benzodiazepine standard studies

CN1C(=O)CN=C(c2ccccc2)c2cc(Cl)ccc21 [diazepam]
decrease in exit latency relative to vehicle-treated controls (Male Sprague-Dawley rats [1]; 1.0 mg/kg PO, benzodiazepine standard study): 62% | decrease in exit latency relative to vehicle-treated controls (Male Sprague-Dawley rats [1]; [3]): 69% | decrease in exit latency relative to vehicle-treated controls (Male Sprague-Dawley rats [1]; [4]): 91% | lowest effective dose (decrease of exit latency) (Male Sprague-Dawley rats [1]): 1.0 mg/kg

CNC1=Nc2ccc(Cl)cc2C(c2ccccc2)=[N+]([O-])C1 [chlordiazepoxide]
decrease in exit latency relative to vehicle-treated controls (Male Sprague-Dawley rats [1]; [3]): 58% | decrease in exit latency relative to vehicle-treated controls (Male Sprague-Dawley rats [1]; [4]): 97% | decrease in exit latency relative to vehicle-treated controls (Male Sprague-Dawley rats [1]; 30 mg/kg PO, benzodiazepine standard study): 72% | decrease in exit latency relative to vehicle-treated controls (Male Sprague-Dawley rats [1]; 100 mg/kg PO, benzodiazepine standard study): 54% | lowest effective dose (decrease of exit latency) (Male Sprague-Dawley rats [1]): 3.0 mg/kg

CCC(CC)Nc1cc(C)nc2c(-c3ccc(OC)cc3C)c(C)nn12 [DMP904]
effectiveness in the situational anxiety model (Male Sprague-Dawley rats [2]): effective

From patent publication US8372847B2, “Pyrazinone modulator of corticotropin-releasing factor receptor activity” (Bristol-Myers Squibb Company, priority 2008, dated 2013)
